We go through 17 compounds from patent US20250171417A1, “HETEROCYCLIC DERIVATIVE, AND COMPOSITION AND PHARMACEUTICAL USE THEREOF” (Xizang Haisco Pharmaceutical Co., Ltd., priority 2021, published 2025).

The subject of the experiment is Prostate cancer cells 22RV1. As to the kind of experiment: Experiment on inhibiting 22RV1 cell proliferation (CellTiter-Glo, 7 days). The class given is cell-based. The note with it: Homo sapiens, 168 h, 22RV1 cells, 7 days incubation, read-out: IC50 values for inhibition of 22RVI cells. As for the experimental part: Prostate cancer cells 22RV1 were purchased from ATCC, the cell medium was RPMI 1640+10% FBS, and the cells were cultured in an incubator at 37° C. under 5% CO2. On day 1, the cells in the exponential growth phase were collected. With a 1% css-FBS phenol red-free medium, the cell suspension was adjusted to a corresponding concentration, plated at 2000 cells/well and incubated overnight. On day 2, compounds at different concentrations were added, and the plate was placed in the incubator and incubated for further 7 days. After the incubation was completed, according to operation instructions for a CellTiter-Glo kit (Promega, G7573), 50 μL of CellTiter-Glo reagents, which were already pre-melted and equilibrated to room temperature, were added to each well, and the mixtures were uniformly mixed for 2 min using a microplate shaker. The plate was placed at room temperature for 10 min. and then […] signal values were measured using a microplate reader (PHERAstar FSX). The results were processed according to formula (I), the inhibition rate of the compound at different concentrations was calculated, and the IC50 value of the compound with an inhibition rate of 50% was calculated using origin9.2 software with DoseResp function, wherein RLUcompound was the readout of the treated group, and RLUcontrol was the average value of the DMSO vehicle control group.

The mark [1] stands for this setting: cells with nM printed beside the value.
Where [2] appears, read: cells without a unit of their own (μM).

SMILES strings stand for the structures. Read-outs that look alike come from different tables or passages of the source. Some results are limits rather than exact numbers.

One may read the IC50 as the midpoint of a concentration-inhibition curve.

For `O=C1CCC(N2C(=O)c3ccc(N4CC(C#Cc5cnn(C6(C(=O)Nc7ccc(C(F)(F)F)cc7Cl)CC6)c5)C4)cc3C2=O)C(=O)N1` (centres unmarked) [Compound 72, N-(2-chloro-4-(trifluoromethyl)phenyl)-1-(4-((1-(2-(2,6-dioxopiperidin-3-yl)-1,3-dioxoisoindolin-5-yl)azetidin-3-yl)ethynyl)-1H-pyrazol-1-yl)cyclopropane-1-carboxamide], under setting [1], the IC50 was under 50 nM. Still for that read-out and setting: the figure for `O=C1CCC(N2C(=O)c3ccc(N4CC(C#Cc5cnn(C6(C(=O)Nc7ccc(C(F)(F)F)c(C8CC8)c7)CCC6)c5)C4)cc3C2=O)C(=O)N1` (centres unmarked) [Compound 75, N-(3-cyclopropyl-4-(trifluoromethyl)phenyl)-1-(4-((1-(2-(2,6-dioxopiperidin-3-yl)-1,3-dioxoisoindolin-5-yl)azetidin-3-yl)ethynyl)-1H-pyrazol-1-yl)cyclobutane-1-carboxamide] is under 50 nM; for `CC(C(=O)Nc1ccc(C#N)c(C(F)(F)F)c1)n1cc(C#CC2CN(c3ccc4c(c3)C(=O)N(C3CCC(=O)NC3=O)C4=O)C2)cn1` (centres unmarked) [Compound 77, N-(4-cyano-3-(trifluoromethyl)phenyl)-2-(4-((1-(2-(2,6-dioxopiperidin-3-yl)-1,3-dioxoisoindolin-5-yl)azetidin-3-yl)ethynyl)-1H-pyrazol-1-yl) propanamide] it is under 50 nM. `N#Cc1ccc(NC(=O)C2(n3cc(C#CC4CN(c5cc6c(cc5F)C(=O)N(C5CCC(=O)NC5=O)C6=O)C4)cn3)CCC2)c2ccccc12` (centres unmarked) [Compound 80]: the IC50 under setting [2] was under 1000 nM. As for `CC(C)(C(=O)Nc1ccc(C#N)c2ccccc12)n1cc(C#CC2CN(c3cc4c(cc3F)C(=O)N(C3CCC(=O)NC3=O)C4=O)C2)cn1` (centres unmarked) [Compound 81], the IC50 under setting [2] is under 1000 nM. In the case of `CC(C)(C(=O)Nc1ccc(C#N)cc1Br)n1cc(C#CC2CN(c3ccc4c(c3)C(=O)N(C3CCC(=O)NC3=O)C4=O)C2)cn1` (centres unmarked) [Compound 82, N-(2-bromo-4-cyanophenyl)-2-(4-((1-(2-(2,6-dioxopiperidin-3-yl)-1,3-dioxoisoindolin-5-yl)azetidin-3-yl)ethynyl)-1H-pyrazol-1-yl)-2-methylpropanamide], the IC50 under setting [1] is under 50 nM. `O=C1CCC(N2C(=O)c3ccc(N4CCC5(CC4)CC(CN4CCC(c6cnn(C7(C(=O)Nc8ccc(C(F)(F)F)cc8Cl)CCC7)c6)CC4)C5)cc3C2=O)C(=O)N1` (centres unmarked) [Compound 85, N-(2-chloro-4-(trifluoromethyl)phenyl)-1 (4-(1-((7-(2-(2,6-dioxopiperidin-3-yl)-1,3-dioxoisoindolin-5-yl)-7-azaspiro[3.5]nonan-2-yl)methyl)piperidin-4-yl)-1H-pyrazol-1-yl)cyclobutane-1-carboxamide]: the IC50 under setting [2] is under 1000 nM. On the same count and under the same terms, the figure for `O=C1CCC(N2C(=O)c3ccc(N4CC5CC(CN6CCC(c7cnn(C8(C(=O)Nc9ccc(C(F)(F)F)cc9Cl)CCC8)c7)CC6)CC5C4)cc3C2=O)C(=O)N1` (centres unmarked) [Compound 91, N-(2-chloro-4-(trifluoromethyl)phenyl)-1-(4-(1-((2-(2-(2,6-dioxopiperidin-3-yl)-1,3-dioxoisoindolin-5-yl)octahydrocyclopenta[c]pyrrol-5-yl)methyl)piperidin-4-yl)-1H-pyrazol-1-yl)cyclobutane-1-carboxamide] is under 1000 nM; for `CC(C)(C(=O)Nc1ccc(C(F)(F)F)cc1-c1ccccc1)n1cc(C#CC2CN(c3ccc4c(c3)C(=O)N(C3CCC(=O)NC3=O)C4=O)C2)cn1` (centres unmarked) [Compound 112, 2-(4-((1-(2-(2,6-dioxopiperidin-3-yl)-1,3-dioxoisoindolin-5-yl)azetidin-3-yl)ethynyl)-1H-pyrazol-1-yl)-2-methyl-N-(5-(trifluoromethyl)-[1,1′-biphenyl]-2-yl) propanamide] it is under 1000 nM. As to `[2H]C1([2H])C([2H])([2H])C(C(=O)Nc2ccc(C(F)(F)F)cc2Cl)(n2cc(C#CC3CN(c4ccc5c(c4)C(=O)N(C4CCC(=O)NC4=O)C5=O)C3)cn2)C1([2H])[2H]` (centres unmarked) [Compound 113, N-(2-chloro-4-(trifluoromethyl)phenyl)-1-(4-((1-(2-(2,6-dioxopiperidin-3-yl)-1,3-dioxoisoindolin-5-yl)azetidin-3-yl)ethynyl)-1H-pyrazol-1-yl)cyclobutane-2,2,3,3,4,4-d6-1-carboxamide], the IC50 under setting [1] was under 50 nM. In the case of `CC(C)(C(=O)Nc1ccc(C(F)(F)F)cc1C#CC1CC1)n1cc(C#CC2CN(c3ccc4c(c3)C(=O)N(C3CCC(=O)NC3=O)C4=O)C2)cn1` (centres unmarked) [Compound 116, N-(2-(cyclopropylethynyl)-4-(trifluoromethyl)phenyl)-2-(4-((1-(2-(2,6-dioxopiperidin-3-yl)-1,3-dioxoisoindolin-5-yl)azetidin-3-yl)ethynyl)-1H-pyrazol-1-yl)-2-methylpropanamide], the IC50 under setting [1] is under 50 nM. For `CC(C)(C(=O)Nc1ccc(C(F)(F)F)cc1-n1cncn1)n1cc(C#CC2CN(c3ccc4c(c3)C(=O)N(C3CCC(=O)NC3=O)C4=O)C2)cn1` (centres unmarked) [Compound 117, N-(2-(1H-1,2,4-triazol-1-yl)-4-(trifluoromethyl)phenyl)-2-(4-((1-(2-(2,6-dioxopiperidin-3-yl)-1,3-dioxoisoindolin-5-yl)azetidin-3-yl)ethynyl)-1H-pyrazol-1-yl)-2-methylpropanamide], the IC50 under setting [2] is under 1000 nM.

As for `Cc1c(C#N)ccc(NC(=O)C(C)(C)n2cc(C#CC3CN(c4ccc5c(c4)C(=O)N(C4CCC(=O)NC4=O)C5=O)C3)cn2)c1C` (centres unmarked) [Compound 152, N-(4-cyano-2,3-dimethylphenyl)-2-(4-((1-(2-(2,6-dioxopiperidin-3-yl)-1,3-dioxoisoindolin-5-yl)azetidin-3-yl)ethynyl)-1H-pyrazol-1-yl)-2-methylpropanamide], the half-inhibitory concentration (IC50) under setting [1] was under 50 nM.

With `CC(C)(C(=O)Nc1ccc(C(F)(F)F)cc1Cl)n1cnc2ccc(C#CC3CN(c4ccc5c(c4)C(=O)N(C4CCC(=O)NC4=O)C5=O)C3)cc21` (centres unmarked) [Compound 161, N-(2-chloro-4-(trifluoromethyl)phenyl)-2-(6-((1-(2-(2,6-dioxopiperidin-3-yl)-1,3-dioxoisoindolin-5-yl)azetidin-3-yl)ethynyl)-1H-benzo[d]imidazol-1-yl)-2-methylpropanamide], the IC50 under setting [2] is under 1000 nM. Take `CC(C)(C(=O)Nc1ccc(C(F)(F)F)cc1Cl)n1cnc2cc(C#CC3CN(c4ccc5c(c4)C(=O)N(C4CCC(=O)NC4=O)C5=O)C3)ccc21` (centres unmarked) [Compound 162, N-(2-chloro-4-(trifluoromethyl)phenyl)-2-(5-((1-(2-(2,6-dioxopiperidin-3-yl)-1,3-dioxoisoindolin-5-yl)azetidin-3-yl)ethynyl)-1H-benzo[d]imidazol-1-yl)-2-methylpropanamide]: under setting [2], the IC50 was under 1000 nM. For `Cc1c(C#CC2CN(c3ccc4c(c3)C(=O)N(C3CCC(=O)NC3=O)C4=O)C2)cnn1C1(C(=O)Nc2ccc(C(F)(F)F)cc2Cl)CCC1` (centres unmarked) [Compound 163, N-(2-chloro-4-(trifluoromethyl)phenyl)-1-(4-((1-(2-(2,6-dioxopiperidin-3-yl)-1,3-dioxoisoindolin-5-yl)azetidin-3-yl)ethynyl)-5-methyl-1H-pyrazol-1-yl)cyclobutane-1-carboxamide], the IC50 under setting [1] was under 50 nM. The same measure, in the same setting: the figure for `CC(C)(C(=O)Nc1ccc(C#N)c2c1C1CCC2C1)n1cc(C#CC2CN(c3ccc4c(c3)C(=O)N(C3CCC(=O)NC3=O)C4=O)C2)cn1` (centres unmarked) [Compound 165, N-(8-cyano-1,2,3,4-tetrahydro-1,4-methanonaphthalen-5-yl)-2-(4-((1-(2-(2,6-dioxopiperidin-3-yl)-1,3-dioxoisoindolin-5-yl)azetidin-3-yl)ethynyl)-1H-pyrazol-1-yl)-2-methylpropanamide] is under 100 nM.
